Experimental findings from US20210032253A1, “PYRAZOLO[1,5-A][1,3,5]TRIAZINE-2-AMINE DERIVATIVE, PREPARATION METHOD THEREFOR AND MEDICAL USE THEREOF” (JIANGSU HENGRUI MEDICINE CO., LTD., priority 2018, published 2021) are described below.

Data set [1] is described as follows: Pharmacokinetics assay in mice after intragastrical administration (plasma, LC/MS/MS). It counts as in vivo. The note with it: mouse, po, C57 mice (female), 2 mg/kg; for Vd/F: read-out: Apparent distribution volume Vz/F; for AUC: read-out: Area under curve AUC; for CL/F: read-out: Clearance CLz/F; for Cmax: read-out: Drug concentration in blood Cmax; for half-life: read-out: Half-life T1/2 (converted); for MRT: read-out: Residence time MRT. The procedure:
Test Example 2. Pharmacokinetics assay of the compounds of the present disclosure in mice
Mice were used as test animals. The drug concentration in plasma at different time points was determined by LC/MS/MS method after intragastrical administration of the compounds of Example 1, Example 18 and Example 19 to mice. The pharmacokinetic behavior of the compounds of the present disclosure was studied and evaluated in mice.
Twenty-seven C57 mice (female) were purchased from Shanghai Jiesijie Laboratory Animal Co., LTD, with Certificate No.: SCXK (Shanghai) 2013-0006, and equally divided into 3 groups (9 mice per group).
A certain amount of the test compound was weighed, and added with 2.5% by volume of DMSO, 2.5% by volume of tween 80 and 95% by volume of normal saline to prepare a 0.1 mg/mL colorless, clear and transparent solution.
After an overnight fast, C57 mice were administered intragastrically with the test compounds at an administration dose of 2.0 mg/kg and an administration volume of 0.2 mL/10 g.
The mice were intragastrically administered with the compounds of Example 1, Example 18 and Example 19. 0.1 mL of blood (3 animals at each time point) was taken before administration and at 0.5, 1.0, 2.0, 4.0, 6.0, 8.0, 11.0 and 24.0 hours after administration. The samples were stored in heparinized tubes, and centrifuged for 10 minutes at 3,500 rpm to separate the plasma. The plasma samples were stored at −20° C., the mice was feed 2 hours after administration.
The content of the test compounds in the plasma of the mice after intragastrical administration of the test compounds at different concentrations was determined: 25 μL of the plasma obtained at each time point after administration was taken, added with 30 μL of the internal standard solution of camptothecin (100 ng/mL) and 200 μL of acetonitrile, vortex-mixed for 5 minutes, and centrifuged for 10 minutes (4000 rpm). 3 μL of the supernatant was taken for LC/MS/MS analysis.

Data set [2] deals with T1, adenosine A2a receptor (A2aR) (Homo sapiens, UniProt P29274).
T1 construct: expressed in transfected cells; host or cells: CHO-K1
Kind of data set: Inhibition of adenosine A2a receptor cAMP signaling pathway in CHO-K1/A2aR cells (HTRF cAMP dynamic 2 kit). It counts as cell-based. The note with it: Table 1, 20 nM ethylcarbazole. An outline of the steps: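 CHO-K1/A2aR cells (10^6 cells/mL) in HBSS with 20 mM HEPES, 0.1% BSA, rolipram and adenosine deaminase, exposed to compound (0.001024–10000 nM) for 30 min at RT. Then agonist "ethylcarbazole" at 20 nM final, 30 min RT. cAMP read by HTRF after 1 h in lysis buffer.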

Data set [3] deals with T2, adenosine A1 receptor (A1R) (Homo sapiens, UniProt P30542).
T2 construct: expressed in transfected cells; host or cells: CHO-K1
T2 sequence (P30542 1-326): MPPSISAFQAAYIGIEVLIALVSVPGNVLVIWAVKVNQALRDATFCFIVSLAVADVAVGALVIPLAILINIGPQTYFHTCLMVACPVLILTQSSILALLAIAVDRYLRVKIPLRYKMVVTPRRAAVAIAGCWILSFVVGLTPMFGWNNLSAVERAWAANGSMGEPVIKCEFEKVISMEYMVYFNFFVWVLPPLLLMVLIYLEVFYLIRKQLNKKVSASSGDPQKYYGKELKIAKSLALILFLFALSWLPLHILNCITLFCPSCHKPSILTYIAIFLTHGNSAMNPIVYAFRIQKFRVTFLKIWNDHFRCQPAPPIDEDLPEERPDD
Kind of data set: Inhibition of adenosine A1 receptor cAMP signaling pathway in CHO-K1/A1R cells (HTRF cAMP dynamic 2 kit). The class given is cell-based. The note with it: Table 2; for IC50: CHO-K1/A1R cells, cAMP, 10 μM forskolin, 10 nM CPA; for IC50 ratio (A1R/A2aR): selectivity A1R over A2aR. In outline: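 CHO-K1 cells stably expressing A1R, in HBSS with 20 mM HEPES, 0.1% BSA, rolipram and adenosine deaminase, were pre-incubated 30 min at RT with compound (0.1–100000 nM final). Cells were then stimulated 30 min with 10 μM forskolin plus 10 nM CPA. Intracellular cAMP was read by HTRF after 1 h detection.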

Structures are written as SMILES.

T1 sequence (P29274 whole entry): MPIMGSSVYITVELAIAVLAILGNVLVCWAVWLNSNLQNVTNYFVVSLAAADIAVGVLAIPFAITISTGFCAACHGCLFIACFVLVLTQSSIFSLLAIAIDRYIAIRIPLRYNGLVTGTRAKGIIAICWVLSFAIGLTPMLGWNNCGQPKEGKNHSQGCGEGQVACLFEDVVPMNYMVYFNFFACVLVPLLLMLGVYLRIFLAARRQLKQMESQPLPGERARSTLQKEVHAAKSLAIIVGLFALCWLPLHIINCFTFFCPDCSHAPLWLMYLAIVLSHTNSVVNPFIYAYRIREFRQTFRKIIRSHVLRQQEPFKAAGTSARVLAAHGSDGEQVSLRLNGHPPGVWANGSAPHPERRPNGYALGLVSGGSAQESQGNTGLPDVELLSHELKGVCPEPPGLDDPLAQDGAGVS

The AUC is concentration integrated over time. Broadly, the MRT is a mean duration of stay, worked out from the concentration-time curve. Usually IC50 stands for the concentration that inhibits the measured activity by half. A higher IC50 goes with lower potency. In the case of `Cc1ccc(-c2nc(N)nc3c(Cc4cccc(CO[C@H]5CCOC5)n4)cnn23)o1` [Example 1, (S)-4-(5-Methylfuran-2-yl)-8-((6-(((tetrahydrofuran-3-yl)oxy)methyl)pyridin-2-yl)methyl)pyrazolo[1,5-a][1,3,5]triazin-2-amine], in data set [1], the Vd/F came out at 1.9 L/kg, the AUC was found to be 0.724 µg·h/mL, the CL/F was 2.75 L/h/kg and the Cmax stood at 0.8 µg/mL. In data set [1], the half-life is 0.48 h and the MRT worked out at 0.85 h. Besides, in data set [2], the IC50 came to 0.33 nM. Also, in data set [3], inhibition was half-maximal at 1120 nM (IC50) and the “IC50 ratio (A1R/A2aR)” value was >10^3.

`Cc1ccc(-c2nc(N)nc3c(Oc4cccc(CO[C@H]5CCOC5)n4)cnn23)o1` [Example 19, (S)-4-(5-Methylfuran-2-yl)-8-((6-(((tetrahydrofuran-3-yl)oxy)methyl)pyridin-2-yl)oxy)pyrazolo[1,5-a][1,3,5]triazin-2-amine]: in data set [1], the Vd/F turned out to be 2.12 L/kg, the AUC is 2.49 µg·h/mL, the CL/F stood at 0.798 L/h/kg and the Cmax stood at 2.36 µg/mL. Further, in data set [1], the half-life was 1.85 h and the MRT came to 1.24 h. The molecule also registered a half-inhibitory concentration (IC50) in data set [2] of 0.36 nM. In data set [3], the midpoint of inhibition, the IC50, lay at 2860 nM and the “IC50 ratio (A1R/A2aR)” value is on record as >10^3.

As to `Cc1ccc(-c2nc(N)nc3c(Nc4cccc(CO[C@H]5CCOC5)n4)cnn23)o1` [Example 18, (S)-4-(5-Methylfuran-2-yl)-N^8-(6-(((tetrahydrofuran-3-yl)oxy)methyl)pyridin-2-yl)pyrazolo[1,5-a][1,3,5]triazine-2,8-diamine], in data set [1], the Vd/F stood at 0.841 L/kg, the AUC was 4.86 µg·h/mL, the CL/F is 0.41 L/h/kg and the Cmax was 3.18 µg/mL. In data set [1], the half-life was 1.42 h and the mean residence time (MRT) came to 1.63 h. The same molecule gave an IC50 in data set [2] of 0.87 nM. Further, in data set [3], the 50% inhibitory concentration (IC50) stood at 2540 nM and the “IC50 ratio (A1R/A2aR)” value is given as >10^3.
